Results published in patent US6410537B1, “Compositions having neuroprotective and analgesic activity” (The United States of America as represented by the …, priority 1994, dated 2002).

How the values were obtained:
[1] = Convulsive activity after intracerebral ventricular dosing; type: in vivo; conditions: rats; intracerebral ventricular dosages up to 800 μg
neuronal cell cultures = experiment: Neuroprotection against glutamate toxicity in neuronal cell cultures, measured by LDH release; type: cell-based; conditions: for LDH release: mean ± s.e., 18 hours after glutamate exposure
Experimental: (§1) One particularly valuable enantiomer of the invention is the (+)-8 compound designated SNC80. […] To obtain better understanding of the benefits obtained by use of the compounds of the invention, beneficial effects of the compound were assessed in a model for evaluation of CNS excito-toxicity in an in vitro neuronal culture model. The neurotoxicity/neuroprotection was assessed 18 hours after exposure to the excitotoxin glutamate.
The neuroprotective effect of the SNC80 against glutamate toxicity in neuronal cell cultures was determined using a standard method of quantifying neuronal damage by measuring LDH release, since LDH is a […] enzyme released from damaged neurons into the culture media when neuronal cells are injured. One way in which neuronal cells may be damaged is by exposure to glutamate, a common agent used to induce neuronal damage. In the instant case, the damaging effect of gluamate on these cultures as shown to be overcome by exposure to an active agent of the invention.

neurons = experiment: Antagonism of glutamate neurotoxic calcium flux (intracellular calcium response type); type: cell-based
Experimental: as §1

[2] = Glutamate (80 μM) + SNC80 20 μM
[3] = Glutamate (80 μM) + SNC80 40 μM

C=CCN1C[C@H](C)N([C@H](c2ccc(C(=O)N(CC)CC)cc2)c2cccc(OC)c2)C[C@H]1C [SNC80]
Convulsive activity [1]: failed to elicit convulsive activity | Neuroprotection (LDH measurements and morphological evaluation) (neuronal cell cultures; 18 hours after exposure to glutamate, compared to glutamate alone): concentration-dependent neuroprotection | % neuroprotection (neuronal cell cultures; Glutamate (80 μM) + SNC80 5 μM): 17% | LDH release (neuronal cell cultures; Glutamate (80 μM) + SNC80 5 μM): 98.6 ± 4.5 Units ML | % neuroprotection (neuronal cell cultures; [2]): 43% | LDH release (neuronal cell cultures; [2]): 91.0 ± 2.0 Units ML | % neuroprotection (neuronal cell cultures; [3]): 63% | LDH release (neuronal cell cultures; [3]): 84.7 ± 3.4 Units ML | Response Type biphasic (number of neurons) (neurons; Glutamate + 50 μM, 10 neurons): 6 | Response Type sustained (neurotoxic) (number of neurons) (neurons; Glutamate + 50 μM, 10 neurons): 1 | Response Type transient (number of neurons) (neurons; Glutamate + 50 μM, 10 neurons): 3 | Response Type biphasic (number of neurons) (neurons; Glutamate + 100 μM, 21 neurons): 17 | Response Type sustained (neurotoxic) (number of neurons) (neurons; Glutamate + 100 μM, 21 neurons): 1 | Response Type transient (number of neurons) (neurons; Glutamate + 100 μM, 21 neurons): 3 | Intracellular Ca++ concentration as indicator of glutamate-induced neuronal injury (neurons; glutamate-treated neurons): beneficial shift in the intracellular Ca^++ concentration
